Test results published in US20260327211A1, “MODULATORS OF A POTASSIUM CHANNEL AND OF TRPV1 CHANNEL AND USES THEREOF” (Bsense Bio Therapeutics Ltd., priority 2023, published 2026).

Columns and labels:
rat DRG neurons = assay: Rat DRG neurons, current-evoked action potential firing; assay type: cell-based
Text: rDRGs isolation and primary cell culture: Briefly, rat DRGs from all spinal levels were carefully removed and collected in HBSS on ices, connective tissue of the epineurium surrounding the ganglion was removed and cells were dissociated using Collagenase-II and trypsin dissociation solutions. DRGs were dissociated further, passed through glass Pasteur pipettes to obtain single cells. Then dissociation solution was changed to 5% FBS containing DRG neuronal culture medium and plated onto ECL coated 12 mm cover glass.
Additional rDRGs experiments were performed using Lonza primary neonatal rat (Sprague Dawley neonatal; P2,3) DRG neurons (R-DRG-505, Lonza) plated and cultured according to the manufacturer.
Electrophysiology: Cells were used for electrophysiological recording at least 48 hours following rDRG isolation or at least 5 days following cryopreserved rDRG thawing. Round small neurons (20-40 μm in diameter) were selected for electrophysiology recordings, to select for small nociceptive neurons that propagate pain sensation in vivo and that are expressing both Kv7.2/3 and TRPV1 targets. Membrane excitability was monitored using current clamp configuration of the whole-cell patch-clamp technique. Positive current steps of different amplitude were injected (400 ms) to induce spikes trains before and following compound application.

MIA-OA rats = assay: Monosodium iodoacetate-induced osteoarthritis (MIA-OA) pain model; assay type: in vivo, rat
Protocol: All animal experiments were carried out according to the Guide for the Care and Use of Laboratory Animals (2011 edition) and approved by the Israel National Institutional Animal Care and Use Committee (IACUC). Young adult male SD rats (Envigo RMS, Israel), were used for in vivo efficacy: Spared Nerve Injury (SNI), Distal Tibial Injury (DTI) and Post-operative Pain (POP), 200-220 grams, Chronic Post-Ischemia Pain (CPIP) 275-325 grams, Monosodium iodoacetate-induced osteoarthritis (MIA-OA) 180-220 grams; for in vivo safety: 200-250 grams at study initiation. […] The health status of the animals used in this study was examined upon their arrival. Only animals in good health were acclimatized to laboratory conditions and were used in the studies. All studies were performed following at least five days of animal acclimation. During acclimation and throughout the entire study duration, animals were housed within a limited-access rodent facility and kept in groups with a maximum of 2-3 rats per polypropylene cage. The cages were fitted with solid bottoms and filled with sterile wood shavings as bedding material. Animals were provided ad libitum with a commercial, sterile rodent diet and had free access to drinking water that was supplied to each cage via polyethylene bottles with stainless steel sipper tubes. A feed lot analysis of the diet batch used in the study was included in the archives with the study data. Water was monitored periodically. Plastic cylinders for playing and hiding and wooden balls or sticks were added to the cages for environmental enrichment.
Monosodium iodoacetate-induced osteoarthritis (MIA-OA): The animals were anaesthetized using an Isoflurane+O2 mixture. Then 50 μl of MIA at a concentration of 60 mg/mL was injected into the right knee joint using a 30 G needle. On study days 13 and 14 following MIA injection, the animals' dynamic weight bearing and response to von Frey filaments were measured.
Mechanical Allodynia (Von Frey): The rats were placed in an enclosure and positioned on a metal mesh surface but allowed to move freely. […]

CHO-K1 cells = assay: In vitro micronucleus; assay type: cell-based
In vitro micronucleus = assay type: cell-based; conditions: hamster, cho-k1 cells, read-out: Cytotoxicity (%) Absolute EC50
OAT1 = OAT1 (Homo sapiens, UniProt Q4U2R8); assay: Transporter substrate, OAT1; assay type: in vitro ADME; conditions: role: substrate
Protocol: (§1) Additionally, compound 760 was tested for its capability to act as a transporter substrate for various transporters, and was not found to be a transporter substrate for any of the tested transporters.

OCT2 = OCT2 (Homo sapiens, UniProt O15244); assay: Transporter substrate, OCT2; assay type: in vitro ADME; conditions: role: substrate
Protocol: as §1

OAT1, sequence (Q4U2R8 whole entry): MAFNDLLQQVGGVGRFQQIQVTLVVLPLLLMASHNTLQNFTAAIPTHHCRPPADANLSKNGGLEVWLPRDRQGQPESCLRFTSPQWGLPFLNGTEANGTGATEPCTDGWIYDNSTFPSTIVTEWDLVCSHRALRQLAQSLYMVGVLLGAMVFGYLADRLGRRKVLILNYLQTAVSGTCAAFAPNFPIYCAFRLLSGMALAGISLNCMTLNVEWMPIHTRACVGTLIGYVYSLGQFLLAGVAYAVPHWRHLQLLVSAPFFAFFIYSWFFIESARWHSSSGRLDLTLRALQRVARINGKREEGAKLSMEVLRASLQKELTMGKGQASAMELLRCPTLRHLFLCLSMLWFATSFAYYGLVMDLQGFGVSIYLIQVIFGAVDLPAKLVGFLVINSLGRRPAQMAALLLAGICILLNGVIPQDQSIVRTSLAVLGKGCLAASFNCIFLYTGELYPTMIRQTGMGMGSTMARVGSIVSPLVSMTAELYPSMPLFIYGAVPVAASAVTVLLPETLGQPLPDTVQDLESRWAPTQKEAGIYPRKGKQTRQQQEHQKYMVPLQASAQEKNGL
OCT2, sequence (O15244 whole entry): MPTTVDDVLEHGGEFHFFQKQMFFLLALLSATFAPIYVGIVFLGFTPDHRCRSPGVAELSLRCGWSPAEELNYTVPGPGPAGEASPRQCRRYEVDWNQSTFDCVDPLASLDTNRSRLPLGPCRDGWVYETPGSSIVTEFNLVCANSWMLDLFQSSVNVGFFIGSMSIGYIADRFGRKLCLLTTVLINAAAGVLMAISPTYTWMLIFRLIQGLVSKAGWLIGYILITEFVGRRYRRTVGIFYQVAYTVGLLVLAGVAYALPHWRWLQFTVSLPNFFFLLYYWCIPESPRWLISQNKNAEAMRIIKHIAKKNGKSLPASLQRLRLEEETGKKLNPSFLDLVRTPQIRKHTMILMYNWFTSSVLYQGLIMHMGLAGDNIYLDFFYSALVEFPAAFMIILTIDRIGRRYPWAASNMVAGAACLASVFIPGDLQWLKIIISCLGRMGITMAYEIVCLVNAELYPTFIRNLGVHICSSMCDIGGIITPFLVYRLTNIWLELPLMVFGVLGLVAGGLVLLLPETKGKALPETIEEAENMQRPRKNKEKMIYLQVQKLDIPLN

In the case of `Cc1cn(-c2ccc(F)c(CC(=O)NCC(C)(C)O)c2)c2c(Cl)cc(Cl)cc12` [Compound 421-6], the “Inhibition of current induced AP response” value (rat DRG neurons; 100 nM) is reported as 10.1±3.4%, the “Inhibition of current induced AP response” value (rat DRG neurons; 500 nM) is reported as 51.2±8.4% and the “Inhibition of AP response to current” value (rat DRG neurons; 2 μM) is reported as 77.7±5.6%. The IC50 (rat DRG neurons; read-out: IC50 for inhibition of current induced AP responses) was roughly 0.5 µM.
In the case of `O=C(Cc1cncc(-n2cc(Cl)c3cc(Cl)cc(Cl)c32)c1)N[C@@H]1COC[C@H]1O` [Compound 661], the “Reversal of PWT” value (MIA-OA rats; 100 mg/kg, 6 hour post-dose) is reported as 33%.
For `O=C(Cc1nccc(-n2cc(Cl)c3cc(Cl)cc(Cl)c32)n1)NC1COCC1O` (stereo not shown) [Compound 760], the “Pain relief in osteoarthritic pain model” value (MIA-OA rats; 3-30 mg/kg PO, vs naproxen 30 mg/kg PO) was “superior in both effect and duration to high dose of naproxen”, the minimal effective dose (MIA-OA rats; Rattus norvegicus, po, read-out: Effective dose, osteoarthritic pain) was 3 to 30 mg/kg and the “Micronucleus formation” value (CHO-K1 cells) was “lacks significant micronucleus formation”. For the same compound, the “Micronucleus response Absolute MEC” value (CHO-K1 cells; Plate 1 with S9, 3 hours) was greater than 200 µM, the CC50 (CHO-K1 cells; Plate 1 with S9, 3 hours, read-out: Cytotoxicity (%) Absolute EC50) was greater than 200 µM and the “Micronucleus response Absolute MEC” value (CHO-K1 cells; Plate 2 without S9, 3 hours) was greater than 200 µM. The “Micronucleus response Absolute MEC” value (CHO-K1 cells; Plate 3 without S9, 24 hours) was greater than 200 µM, the CC50 at 3 h (In vitro micronucleus; Plate 2 without S9, 3 hours) was greater than 200 µM and the CC50 at 24 h (In vitro micronucleus; Plate 3 without S9, 24 hours) was 81.2 µM. For the same compound, the OAT1 substrate (OAT1) was “not a transporter substrate” and the OCT2 substrate (OCT2) was “not a transporter substrate”.
